Results on 2 compounds are retold here after patent US7718679B2, “Heteroaryl carboxamides” (Hoffman-La Roche Inc., priority 2006, dated 2010).

For this assay, the target named is T1, human factor Xa (Homo sapiens, UniProt P00742).
T1 construct: Factor Xa is a serine endopeptidase composed of two disulfide-linked subunits; purchased Enzyme Research Laboratories
Put plainly: Factor Xa chromogenic peptide substrate (S-2222) assay. It is filed as biochemical. The following applies: apparent Ki by Cheng-Prusoff from IC50; human factor Xa 3 nM, substrate S-2222, pH 7.8, room temperature.

T1 sequence (P00742 235-488 limits assumed): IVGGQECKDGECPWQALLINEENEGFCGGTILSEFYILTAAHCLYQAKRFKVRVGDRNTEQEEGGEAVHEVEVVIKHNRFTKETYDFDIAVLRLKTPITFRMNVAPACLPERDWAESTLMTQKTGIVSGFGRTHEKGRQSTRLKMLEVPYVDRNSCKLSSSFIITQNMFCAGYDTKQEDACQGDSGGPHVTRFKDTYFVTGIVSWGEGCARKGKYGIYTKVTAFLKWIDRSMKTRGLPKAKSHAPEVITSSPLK
T1 sequence (P00742 41-179 partner limits assumed): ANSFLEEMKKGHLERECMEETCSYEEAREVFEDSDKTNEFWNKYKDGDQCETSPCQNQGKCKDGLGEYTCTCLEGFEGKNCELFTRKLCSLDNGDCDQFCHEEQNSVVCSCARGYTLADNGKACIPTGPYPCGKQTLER
Protocol: Factor Xa activity was measured spectrophotometrically in microtiter plates in a final volume of 150 μl using the following conditions: Inhibition of human factor Xa (Enzyme Research Laboratories) was tested at an enzyme concentration of 3 nM using the chromogenic substrate S-2222 (Chromogenix AB, Mölndal, Sweden) at 200 nM. The reaction kinetics of the enzyme and the substrate were linear with both time and the enzyme concentration. The inhibitors were dissolved in DMSO and tested at various concentrations up to 100 μM. The inhibitors were diluted using HNPT buffer consisting of HEPES 100 mMM, NaCl 140 mM, PEG 6000 0.1% and Tween 80 0.02%, pH 7.8. […] The velocity of the reaction was determined by the autoreader from the slope of the linear regression fit to 7 time points (1 minute). The initial velocity for each inhibitor concentration was determined by the slope of at least 4 time points in the linear phase by a linear regression fit (mOD/min^2). Apparent dissociation constants Ki were calculated according to Cheng and Prusoff [Cheng, Y. C.; Prusoff, W. H. Relationship between the inhibition constant (Ki) and the concentration of the inhibitor that causes 50 percent inhibition (IC50) of an enzyme reaction. Biochem. Pharmacol. 1973, 22, 3099-3108.] based on the IC50 and the respective Km, determined previously (Ki=IC50/(1+S/Km)). […]

As to `O=C(Nc1ccc(N2CCOCC2=O)cc1)c1nc(CNC(=O)c2ccc(Cl)s2)no1` [Example 5, 3-{[(5-chloro-thiophene-2-carbonyl)-amino]-methyl}-[1,2,4]oxadiazole-5-carboxylic acid [4-(3-oxo-morpholin-4-yl)-phenyl]-amide], the Ki worked out at 0.016 µM.
As for `O=C(Nc1ccc(-n2ccncc2=O)cc1F)c1nc(CNC(=O)c2ccc(Cl)s2)no1` [Example 3, 3-{[(5-chloro-thiophene-2-carbonyl)-amino]-methyl}-[1,2,4]oxadiazole-5-carboxylic acid [2-fluoro-4-(2-oxo-2H-pyrazine-1-yl)-phenyl]-amide], the Ki is 0.007 µM.
